Values quoted from earlier work, collected in patent US12662501B2, “Transcriptome In Vivo Analysis (TIVA) and Transcriptome In Situ Analysis (TISA)” (The Trustees of the University of Pennsylvania, priority 2014, dated 2026).

Experiments:
[1] = for Eop: 1MLCT Ru→bpy(π1*) transition; for λmax: 1MLCT band

C=CCn1cnnc1 [4-ally1-1,2,4-triazole]
Eop [1]: 21190 cm⁻¹
λmax [1]: 472 nm

CC(=O)c1ccncc1.CC(=O)c1ccncc1.[Ru+2].c1ccc(-c2ccccn2)nc1.c1ccc(-c2ccccn2)nc1 [(4-AcPyr)2]
Eop [1]: 22620 cm⁻¹
λmax [1]: 442 nm

CCSC.CCSC.[Ru+2].c1ccc(-c2ccccn2)nc1.c1ccc(-c2ccccn2)nc1 [(MeSEt)2]
Eop [1]: 23697 cm⁻¹
λmax [1]: 422 nm

CSc1ccccc1.CSc1ccccc1.[Ru+2].c1ccc(-c2ccccn2)nc1.c1ccc(-c2ccccn2)nc1 [(MeSPh)2]
Eop [1]: 24752 cm⁻¹
λmax [1]: 404 nm

Cn1ccnc1.Cn1ccnc1.[Ru+2].c1ccc(-c2ccccn2)nc1.c1ccc(-c2ccccn2)nc1 [(N-MeIm)2]
Eop [1]: 20700 cm⁻¹
λmax [1]: 483 nm

N.N.[Ru+2].c1ccc(-c2ccccn2)nc1.c1ccc(-c2ccccn2)nc1 [(NH3)2]
Eop [1]: 20410 cm⁻¹
λmax [1]: 490 nm

[Ru+2].c1ccc(-c2ccccn2)nc1.c1ccc(-c2ccccn2)nc1.c1ccc(P(c2ccccc2)c2ccccc2)cc1.c1ccc(P(c2ccccc2)c2ccccc2)cc1 [(PPh3)2]
Eop [1]: 23870 cm⁻¹
λmax [1]: 419 nm

[Ru+2].c1ccc(-c2ccccn2)nc1.c1ccc(-c2ccccn2)nc1.c1ccncc1.c1ccncc1 [(Pyr)2]
Eop [1]: 21980 cm⁻¹
λmax [1]: 455 nm

F[P-](F)(F)(F)(F)F.NCCCC(=O)[O-].[Ru+2].c1ccc(-c2ccccn2)nc1.c1ccc(-c2ccccn2)nc1.c1ccc(P(c2ccccc2)c2ccccc2)cc1 [RuBi-caged GABA]
ε (1P, 424 nm): 6400 M⁻¹ cm⁻¹
Φ (RuBi-caged GABA): 0.2
εΦ (RuBi-caged GABA, 1P, 424 nm): 1280
